Data reported in patent US4576956A, “Iodo propargylaminoisoxazoles as fungicides” (Shionogi & Co., Ltd., priority 1982, dated 1986).
In brackets after ≈: the same amount, converted by molar mass.

What was measured:
Aspergillus fumigatus = experiment: Test A-1 Anti-fungal Activity (MIC), microwell dilution; format: cell-based; settings: in vitro, 1×10^5 cells/ml
Protocol: (§1) Test A-1 Anti-fungal Activity (MIC)
(§2) The concentration of the test cells was 1×10^5 cells/ml and the activity was measured by a microwell dilution method. The structure of the test compounds is referred to in the Examples.

Candida albicans M-9 = experiment: as above; format: cell-based; settings: M9, C. albicans M-9, in vitro, 1×10^5 cells/ml
Protocol: as §1, §2

Trichophyton asteroides [1] = experiment: as above; format: cell-based; settings: T. asteroides, in vitro, 1×10^5 cells/ml
Protocol: as §1
The following results (Table 1) were obtained in an anti-fungal activity test in vitro against Aspergillus fumigatus, Candida albicans M-9 and Trichophyton asteroides. The concentration of the test cells was 1×10^5 cells/ml and the activity was measured by a microwell dilution method. The structure of the test compounds is referred to in the Examples.

Sclerotinia sclerotiorum = experiment: Test B-2 Control Test to Sclerotinia Rot of Cucumber; format: in vivo; settings: 48 h, 2 days, read-out: Percent Disease Control
Protocol: Test B-2 Control Test to Sclerotinia Rot of Cucumber
Cucumber seedlings were sprayed with 2.5 ml of a test solution in the same manner as in Test B-1. Afterthe spraying, the seedlings were kept at 25°-26° C. for a day and three disks of 4 mm in diameter containing mycelia of Sclerotinia sclerotiorum were put on a primary leaf and then 10 μl of PD broth were dropped on the disks. The treated seedlings were kept ina greenhouse (20° C.) for 2 days and then the diameters of the disease spots were measured by a pair of slide callipers. [formula]

[2] = test system: Pseudoperonospora cubensis; experiment: Test B-3 Control Test to Downy Mildew of Cucumber; format: in vivo; settings: 500 ppm, 7 days
Protocol: Test B-3 Control Test to Downy Mildew of Cucumber
Each cucumber seedling was sprayed with 2.5 ml of a test solution in the same manner as in Test B-1. After the spraying, the seedlings were kept at 25°-26° C. for a day and a zoosporangium suspension or Pseudoperonospora cubensis was inoculated at a rate of five spots per leaf on a primary leaf. The treated seedlings were kept in a greenhouse for 7 days and then observed.
(2) Slight disease at the inoculation spot . . . X5
(3) A disease spot in the same size as the inoculation spot (without spreading) . . . x10
(4) A disease spot larger than the inoculation spot . . . x20
Disease degree and percent disease control were calculated in the same manner as in Test B-1.

Botrytis cinerea = experiment: Test B-1 Control Test of Botrytis Rot (Gray Mold) of Cucumber; format: in vivo; settings: 500 ppm, 3 days
Protocol: Test B-1 Control Test of Botrytis Rot (Gray Mold) of Cucumber Seedlings of Cucumber (Cultivar: Matsukaze) were planted and grown in soil in vinyl-chloride cups of 9 cm in diameter in a greenhouse. […] The treated cucumbers were kept for 3 days in a greenhouse (20° C.) and then disease degrees were counted. Standard of Evaluation […] (2) A slight soaked lesion on the reverse of the test leaf . . . × 5 (3) A slight fade of the leaf . . . × 10 (4) The inoculated part was faded and the fading expanded erosively . . . × 20 [formula]

[3] = test system: Colletotrichum lagenarium; experiment: Test B-4 Control Test to Anthracnose of Cucumber; format: in vivo; settings: 500 ppm, 3 + 3 days
Protocol: Test B-4 Control Test to Anthracnose of Cucumber Each cucumber seedling was sprayed with 2.5 ml of a test solution in the same manner as in Test B-1. After the spraying, the seedlings were kept at 25°-26° C. for a day and were inoculated with five filter-paper disks of 6 mm in diameter saturated with a conidium suspension of Colletotrichum lagenarium at a concentration of 1×10^6 conidia/ml. The treated seedlings were kept in a greenhouse (25° C.) for 3 days and further kept at below 25° C. for 3 days. Standard of Evaluation The same as noted in Test B-3.

Mycoplasma hyopneumonia = experiment: growth inhibition of a swine enzootic pneumonia-causative bacteria; format: cell-based; settings: one range for the listed compounds, read-out: concentration inhibiting the growth
Fusarium oxysporum = experiment: Test B-6 Control Test to Damping-off of Cucumber; format: in vivo; settings: F*, 500 ppm, soil drench, 2 weeks
Protocol: (§3) Test B-6 Control Test to Damping-off of Cucumber
(§4) Twenty cucumber seeds were sown into sterilized soil (150 ml) in a pot of 9 cm in diameter. The fungi, Phythium aphanidermatum, Fusarium oxysporum and Rhizoctonia solani were cultured on a wheat bran medium for 5 days and an additional 2 days thereafter were mixed with sterilized soil. The surface of the sown spots was covered with the above culture medium. A test solution (30 ml) at a prescribed concentration was poured into each pot. The pots were kept in a greenhouse (28° C.) for 1 week in the case of Pythium and Rhizoctonia and for 2 weeks in the case of Fusarium.
(§5) The disease degree was observed and percent disease degree was calculated by the following formula: […]
(§6) (1) No germination . . . x 4
(§7) (2) Germed but withered . . . x 3
(§8) (3) Disordered in 1/3 or more . . . x 2
(§9) (4) Disordered in less than 1/3 . . . x 1
(§10) (5) Not damaged . . . x 0 [formula]
(§11) The percent disease control was calculated in the same manner as in Test B-1.

Pythium aphanidermatum = experiment: Test B-6 Control Test to Damping-off of Cucumber; format: in vivo; settings: P*, 500 ppm, soil drench, 1 week
Protocol: as §3, §4, §5, §6, §7, §8, §9, §10, §11

Rhizoctonia solani = experiment: Test B-6 Control Test to Damping-off of Cucumber; format: in vivo; settings: R*, 500 ppm, soil drench, 1 week
Protocol: as §3, §4, §5, §6, §7, §8, §9, §10, §11

Pyricularia oryzae = format: in vivo; settings: 500 ppm; rice plant blast, 24 hours + 7 days
Mycoplasma gallisepticum = experiment: minimum inhibition concentration; format: cell-based; settings: Mycoplasmoides gallisepticum, one range for the listed compounds
Sphaerotheca fuliginea = experiment: Test B-5 Control Test to Powdery Mildew of Cucumber; format: in vivo; settings: 500 ppm, 2 weeks
Protocol: Test B-5 Control Test to Powdery Mildew of Cucumber
Each cucumber seedling was sprayed with 2.5 ml of a test solution. The seedlings were kept at 25°-26° C. for 1 day after the spraying and then sprayed with a conidium (1×10^5 conidia/ml) of Sphaerotheca fuliginea in a 100 ppm spreader solution (containing 20% polyoxyethylene glycol alkyl phenol ether and 12% lignin sulfonate) at a rate of 25 ml/20 cups.
The seedlings were kept in a greenhouse (25° C.) for 2 weeks and then observed.
Standard of Evaluation [formula]
as §11

fungi = settings: prior art, Japanese patent publications; cited from earlier work
Candida albicans = experiment: Test A-2 Anti-fungal Activity (MCC); settings: 48 h, read-out: MCC (Minimal Cidal Concentration)
Protocol: (§12) Some MCC (Minimal Cidal Concentration) values (Table 1) were obtained against Candida albicans and Trichophyton asteroides by the following method. After the MIC value was obtained by the microwell method, a loopful amount was picked up from the medium in which no growth of the fungus was observed, inoculated into a Subrouraud's glucose agar medium and incubated at 28° C. for 2 days in the case of C. albicans and for 7 days in the case of T. asteroides.

Trichophyton asteroides [4] = experiment: Test A-2 Anti-fungal Activity (MCC); settings: 168 h, read-out: MCC (Minimal Cidal Concentration)
Protocol: as §12

| SMILES | MIC (Aspergillus fumigatus) [mg/L] | MIC (Candida albicans M-9) [mg/L] | MIC (Trichophyton asteroides [1]) [mg/L] | pest or weed control at 500 ppm (Sclerotinia sclerotiorum) [%] | Percent Disease Control [2] [%] | Percent Disease Control [3] [%] | further results |
| --- | --- | --- | --- | --- | --- | --- | --- |
| Cc1onc(N(C)CC#CI)c1Cl [compound 33, 3-(N-methyl-N-3-iodo-2-propynyl)amino-4-chloro-5-methylisoxazole] | 3.1 (≈ 9.98 µM) | 1.6 (≈ 5.15 µM) | 0.8 (≈ 2.58 µM) | 100 | 100 |  |  |
| Cc1onc(NCC#CI)c1Cl [compound 34, 3-(3-iodo-2-propynyl)-amino-4-chloro-5-methylisoxazole] |  |  |  |  | 100 | 100 | Percent Disease Control (Botrytis cinerea): 100%; MIC (Mycoplasma hyopneumonia): 3.13 to 12.5 mg/L (≈ 10.6 to 42.2 µM) |
| Cc1noc(NCC#CI)c1C [Comp. 19] | 3.1 (≈ 11.2 µM) | 0.8 (≈ 2.9 µM) | 0.8 (≈ 2.9 µM) | 100 |  | 100 | Percent Disease Control (Fusarium oxysporum): 78%; Percent Disease Control (Pythium aphanidermatum): 100%; Percent Disease Control (Rhizoctonia solani): 100%; Percent Disease Control (Pyricularia oryzae): 100%; MIC (Mycoplasma gallisepticum): 6.25 to 12.5 mg/L (≈ 22.6 to 45.3 µM) |
| CC(C)c1noc(N(C)CC#CI)c1Cl [Comp. 26] | 50 (≈ 148 µM) | 6.3 (≈ 18.6 µM) | 1.6 (≈ 4.73 µM) |  | 100 | 100 | Percent Disease Control (Sphaerotheca fuliginea): 100% |
| IC#CCOc1noc2ccccc12 [3-(3-iodo-2-propynyloxy)benzisoxazole] |  |  |  |  |  |  | anti-fungal activity (fungi): has the same activity |
| CN(CC#CI)c1cc(C2CC2)no1 [Comp. 8] | 1.6 (≈ 5.3 µM) | 0.8 (≈ 2.65 µM) | 3.1 (≈ 10.3 µM) |  |  |  |  |
| CN(CC#CI)c1onc(-c2ccccc2)c1Cl [Comp. 27] |  |  |  |  |  |  | Percent Disease Control (Pyricularia oryzae): 100% |
| Cc1cc(OCC#CI)no1 [3-(3-iodo-2-propynyl)oxy-5-methylisoxazole] |  |  |  |  |  |  | anti-fungal activity (fungi): anti-fungal and anti-septic agent for woods |
| Cc1noc(N(C)CC#CI)c1Cl [Comp. 24] | 0.8 (≈ 2.58 µM) | 0.2 (≈ 0.644 µM) | 0.4 (≈ 1.29 µM) | 100 |  |  | Percent Disease Control (Botrytis cinerea): 100%; Percent Disease Control (Sphaerotheca fuliginea): 100%; Percent Disease Control (Fusarium oxysporum): 93%; Percent Disease Control (Pythium aphanidermatum): 100%; Percent Disease Control (Rhizoctonia solani): 100%; MFC (Candida albicans): 12.5 mg/L (≈ 40.3 µM); MFC (Trichophyton asteroides [4]): 3.1 mg/L (≈ 9.98 µM) |
| Cc1noc(N(C)CC#CI)c1C [Comp. 20] | 0.8 (≈ 2.76 µM) | 0.8 (≈ 2.76 µM) | 0.8 (≈ 2.76 µM) | 100 |  |  | Percent Disease Control (Fusarium oxysporum): 57%; Percent Disease Control (Pythium aphanidermatum): 100%; Percent Disease Control (Rhizoctonia solani): 100%; Percent Disease Control (Pyricularia oryzae): 100%; MIC (Mycoplasma gallisepticum): 6.25 to 12.5 mg/L (≈ 21.5 to 43.1 µM); MFC (Candida albicans): 50 mg/L (≈ 172 µM); MFC (Trichophyton asteroides [4]): 3.1 mg/L (≈ 10.7 µM) |
| CC(C)c1cc(N(C)CC#CI)on1 [Comp. 6] | 1.6 (≈ 5.26 µM) | 0.8 (≈ 2.63 µM) | 1.6 (≈ 5.26 µM) | 100 |  | 100 | MFC (Candida albicans): 25 mg/L (≈ 82.2 µM); MFC (Trichophyton asteroides [4]): 3.1 mg/L (≈ 10.2 µM) |
| CCc1cc(N(C)CC#CI)on1 [Comp. 5] | 1.6 (≈ 5.52 µM) | 0.8 (≈ 2.76 µM) | 1.6 (≈ 5.52 µM) | 100 | 95.0 |  | Percent Disease Control (Botrytis cinerea): 100%; MIC (Mycoplasma gallisepticum): 6.25 to 12.5 mg/L (≈ 21.5 to 43.1 µM) |
| Cc1noc(C)c1NCC#CI [compound 38, 3,5-dimethyl-4-(3-iodo-2-propynylamino)isoxazole] | 3.1 (≈ 11.2 µM) | 0.8 (≈ 2.9 µM) | 0.8 (≈ 2.9 µM) |  |  |  |  |
